This experiment has as its target T1, NOX2 (Homo sapiens, UniProt P04839).
T1 construct: isolated plasma membranes from human neutrophils as a source for Nox2-p22phox; from tissue; host or cells: Plasma membranes of human neutrophils (Nox2-p22phox); cytosolic factors recombinant from E. coli
T1 sequence (P04839 2-570 limits assumed): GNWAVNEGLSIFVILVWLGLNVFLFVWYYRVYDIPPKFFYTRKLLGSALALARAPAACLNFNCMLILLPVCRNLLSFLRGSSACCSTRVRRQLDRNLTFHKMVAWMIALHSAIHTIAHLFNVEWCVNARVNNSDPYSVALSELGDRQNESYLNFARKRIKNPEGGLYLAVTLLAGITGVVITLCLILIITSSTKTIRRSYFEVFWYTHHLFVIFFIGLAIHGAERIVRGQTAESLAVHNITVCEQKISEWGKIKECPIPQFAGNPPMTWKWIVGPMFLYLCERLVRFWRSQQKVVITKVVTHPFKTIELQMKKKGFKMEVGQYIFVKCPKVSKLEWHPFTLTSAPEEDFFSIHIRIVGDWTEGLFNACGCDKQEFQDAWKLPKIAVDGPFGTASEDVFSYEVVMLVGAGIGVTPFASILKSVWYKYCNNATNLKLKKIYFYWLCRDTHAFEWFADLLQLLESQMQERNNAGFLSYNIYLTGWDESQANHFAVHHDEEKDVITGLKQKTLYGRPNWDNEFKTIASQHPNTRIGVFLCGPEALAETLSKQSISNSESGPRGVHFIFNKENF
T1 sequence (P13498 2-195 partner limits assumed): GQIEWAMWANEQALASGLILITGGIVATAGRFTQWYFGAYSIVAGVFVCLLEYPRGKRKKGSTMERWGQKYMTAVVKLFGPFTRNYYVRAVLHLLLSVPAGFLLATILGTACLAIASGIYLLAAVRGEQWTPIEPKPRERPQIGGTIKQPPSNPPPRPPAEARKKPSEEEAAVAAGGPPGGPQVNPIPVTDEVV
The experiment in a line: Nox2 cell-free assay (LO12 luminescence). The class given is biochemical. The following applies: Nox2 cell-free system; for IC50: read-out: NOX2 IC50 (concentration giving half-maximal inhibition); for Emax: read-out: % inhibition (maximum inhibition achieved at a very high concentration of the compound). How it is done:
The following compounds were tested according to the procedures provided in the experimental section. Assays were carried out using the Nox2 cell-free system. The IC50 value is the concentration giving half-maximal inhibition, while the “% inhibition” shown in parentheses is the maximum inhibition achieved at a very high concentration of the compound. 100% refers to complete inhibition within experimental error of the assay.
In certain assays a Cell-Free recombinant NOX-2 system (consisting of isolated plasma membranes from human neutrophils as a source for Nox2-p22phox, supplemented with recombinant p47phox, p67phox and Rac1Q61L (activated Rac), expressed in and isolated from of E. coli. LO12 luminescence was used as a readout to monitor enzymatic activity.
Plasma membranes were prepared from human neutrophils, which express large amounts of Nox2 and stored at −80 C until use. Membranes are mixed with recombinant, purified cytosolic regulatory proteins (p67Np47 chimera, and constitutively active Rac1 mutant Q61) and FAD, along with varying concentrations of compound, and LO12, which luminesces when it reacts with ROSvi. The reaction is started by addition of NADPH and SDS (an artificial stimulus for Nox2). See Curnutte et al., (1987) J. Biol. Chem. 262: 6450-6452.

This note sets out measurements from patent US9868728B2, “Quinazoline derivatives, compositions, and uses related thereto” (Emory University, priority 2010, dated 2018).

`CCOc1cc2c(=O)n(N)c(=S)[nH]c2cc1OC` [AS2-001]: the IC50 is 1 µM. In the case of `Nn1c(=S)[nH]c2cc3c(cc2c1=O)OCCO3` [AS2-014a], the IC50 came out at 0.6 µM.

Take `Nn1c(=S)[nH]c2cc3c(cc2c1=O)OCO3` [AS2-014b]: the IC50 is 0.6 µM. On to `O=C(O)CCCn1c(SCC(=O)Nc2nc(-c3ccccc3)cs2)nc2ccccc2c1=O` [AS140], for which the IC50 was greater than 10 µM. Turning to `CCCCn1c(SCC(=O)Nc2cc(-c3ccc(C)cc3)no2)nc2ccccc2c1=O` [AS153a], the IC50 was greater than 10 µM. Regarding `CN(C)CCCn1c(SCC(=O)Nc2cc(-c3ccc(Cl)cc3)no2)nc2ccccc2c1=O` [AS154b], the IC50 worked out at 8 µM. Moreover, for the setting “value in parentheses”, the Emax is 100%. The corresponding values for `CN(C)CCCn1c(SCC(=O)Nc2nc(-c3ccc(Br)cc3)cs2)nc2ccccc2c1=O` [AS158a] are 5 µM and 100%. `CCN(CC)CCCn1c(SCC(=O)Nc2nc(-c3cccc(C(F)(F)F)c3)cs2)nc2ccccc2c1=O` [AS165b]: the IC50 was greater than 10 µM. Also, where the note is “value in parentheses”, the Emax stood at 80%. With `CCCN(CCC)CCCn1c(SCC(=O)Nc2nc(-c3cccc(Br)c3)cs2)nc2ccccc2c1=O` [AS173b], the IC50 was greater than 20 µM. In addition, the Emax (value in parentheses) is 40%. With `CN(C)CCCn1c(SCC(=O)Nc2nc(-c3cccc(C#N)c3)cs2)nc2ccccc2c1=O` [AS188], the “NOX2 IC50 (concentration giving half-maximal inhibition)” value is listed as “Not active”. Regarding `CN(C)CCCCn1c(SCC(=O)Nc2nc(-c3cccc(Br)c3)cs2)nc2ccccc2c1=O` [AS195], the IC50 came to 3 µM. Further, under “value in parentheses”, the Emax turned out to be 100%. Take `Nn1c(=S)[nH]c2ccccc2c1=O` [AS-247]: the IC50 came to 1.8 µM.

As for `Nn1c(SCC(=O)Nc2nc(-c3ccc(Br)cc3)cs2)nc2ccccc2c1=O` [AS-248], the IC50 amounted to 12.7 µM. Turning to `CN(C)CCCn1c(SCC(=O)Nc2nc(-c3ccc(Br)cc3)cs2)nc2ccsc2c1=O` [AS-256], the IC50 came out at 15 µM.

In the case of `CN(C)CCCn1c(=S)[nH]c2c(c1=O)CCCC2` [AS-259], the IC50 worked out at 7.5 µM. Regarding `CN(C)CCCn1c(SCC(=O)Nc2nc(-c3ccc(Br)cc3)cs2)nc2c(c1=O)CCCC2` [AS-260], the IC50 was 17.5 µM. As to `COc1cc2[nH]c(=S)n(N)c(=O)c2cc1OC` [AS-261A, 3-Amino-6,7-dimethoxy-2-thioxo-2,3-dihydroquinazolin-4(1H)-one], the IC50 was found to be 0.2 µM.

For the molecule `COC(=O)c1ccc2c(=O)n(N)c(=S)[nH]c2c1` [AS-261B], the IC50 was 0.5 µM. On to `Nn1c(=S)[nH]c2cc(C(=O)O)ccc2c1=O` [AS-262], for which the IC50 came out at 6 µM.

Regarding `COC(=O)c1ccc2c(=O)n(N(C)C)c(=S)[nH]c2c1` [AS-266], the IC50 stood at 6 µM. For `COc1cc2[nH]c(=S)n(N(C)C)c(=O)c2cc1OC` [AS-268], the IC50 was 2.5 µM. As to `COc1cc2[nH]c(=S)n(CCCCN)c(=O)c2cc1OC` [AS-269], the IC50 was 1 µM. Turning to `COc1cc2[nH]c(=S)n(CCCO)c(=O)c2cc1OC` [AS-270], the IC50 was found to be 1 µM. As to `COc1cc2[nH]c(=S)n(O)c(=O)c2cc1OC` [AS-271], the IC50 came to 2 µM. As to `CCOc1cc2[nH]c(=S)n(N)c(=O)c2cc1OC` [AS-278], the IC50 amounted to 0.6 µM. Consider `Cc1ccc(-c2csc(NC(=O)CSc3nc4ccccc4c(=O)n3CCCN(C)C)n2)cc1` [Sample T5306350], for which the IC50 is greater than 10 µM. Under “value in parentheses”, the Emax was 90%. Take `CC(Sc1nc2ccccc2c(=O)n1CCCO)C(=O)Nc1nc(-c2ccccc2)cs1` (stereo not drawn) [Sample T5826778]: the IC50 is greater than 10 µM. For the same molecule, the Emax (value in parentheses) turned out to be 90%.

Consider `O=C(CSc1nc2ccccc2c(=O)n1CCCO)Nc1nc(-c2cc(F)ccc2F)cs1` [Sample T5837596], for which the IC50 is greater than 10 µM. For the same molecule, the Emax (value in parentheses) came to 20%. Take `CN(C)CCCn1c(=S)[nH]c2ccccc2c1=O` [TG6-17-2]: the IC50 turned out to be 6.5 µM. The Emax (value in parentheses) came to 60%.

For `Cc1csc(NC(=O)CSc2nc3ccccc3c(=O)n2CCCN(C)C)n1` [TG6-18], the IC50 was greater than 10 µM. As for `CN(C)CCCn1c(SCC(=O)Nc2cc(-c3ccc(F)cc3)n[nH]2)nc2ccccc2c1=O` [TG6-20], the IC50 was 4.5 µM. Besides, where the note is “value in parentheses”, the Emax was determined as 90%. In the case of `CN(C)CCCn1c(SCC(=O)NCc2ccco2)nc2ccccc2c1=O` [TG6-23], the IC50 is greater than 10 µM. On to `CCN(CC)CCn1c(=S)[nH]c2ccccc2c1=O` [TG6-27-2], for which the IC50 was 5.5 µM. Moreover, the Emax (value in parentheses) is 97%. As to `COc1ccc(N(C)CCCNC(=O)c2cc(F)ccc2N)cc1` [TG6-30-2], the IC50 is 0.2 µM.

Consider `COc1ccc(N(C)CCCn2c(=S)[nH]c3ccc(F)cc3c2=O)cc1` [TG6-30], for which the IC50 amounted to 0.1 µM. Besides, the Emax (value in parentheses) turned out to be 50%.

`CN(C)CCCn1c(=O)[nH]c2ccccc2c1=O` [TG6-31]: the “NOX2 IC50 (concentration giving half-maximal inhibition)” value is “Not active”.

Regarding `CN1CCC(n2c(=S)[nH]c3ccccc3c2=O)CC1` [TG6-33-2], the IC50 was determined as 1 µM. For the same molecule, the Emax (value in parentheses) worked out at 40%. On to `CN(C)CCn1c(=S)[nH]c2ccccc2c1=O` [TG6-35-2], for which the IC50 amounted to 4 µM. Further, the Emax (value in parentheses) came out at 50%. For `COc1ccc(-c2csc(NC(=O)CSc3nc4ccccc4c(=O)n3CCCN(C)C)n2)cc1` [TG6-36-2], in that order: 11 µM and 95%.

On to `CN(C)CCCn1c(SCC(=O)Nc2nc(-c3ccc(Br)cc3)cs2)nc2ccccc2c1=O` [TG6-37-2], for which the IC50 was determined as 6 µM. Also, for the setting “value in parentheses”, the “% inhibition (maximum inhibition achieved at a very high concentration of the compound)” value is reported as 95%. Turning to `CN(C)CCCCCn1c(=S)[nH]c2ccccc2c1=O` [TG6-41], the IC50 worked out at 5 µM. Besides, the Emax (value in parentheses) was found to be 50%. The corresponding values for `CCc1ccc(NC(=O)CSc2nc3ccccc3c(=O)n2CCCN(C)C)cc1` [TG6-43] are greater than 10 µM and 60%.

Turning to `CN(C)CCCn1c(SCC(=O)Nc2nc(-c3cccc(F)c3)cs2)nc2ccccc2c1=O` [TG6-48], the Emax (value in parentheses) worked out at 95%. `CCN(CC)CCn1c(SCC(=O)Nc2nc(-c3cccc(Br)c3)cs2)nc2ccccc2c1=O` [TG6-49]: the IC50 was determined as 2 µM. For the same molecule, for the setting “value in parentheses”, the Emax came out at 30%. As for `O=c1c2ccccc2[nH]c(=S)n1CCN1CCCC1` [TG6-52], the IC50 is 2 µM. Further, the Emax (value in parentheses) came to 80%. Take `O=c1c2ccccc2[nH]c(=S)n1CCN1CCCCC1` [TG6-53]: the IC50 was found to be 1.5 µM. Besides, the Emax (value in parentheses) is 90%. `O=c1c2ccccc2[nH]c(=S)n1CCCN1CCOCC1` [TG6-54]: the IC50 came out at 2 µM. For the same molecule, the Emax (value in parentheses) was found to be 80%. With `CN1CCN(CCCn2c(=S)[nH]c3ccccc3c2=O)CC1` [TG6-55], the IC50 is 3 µM. The Emax (value in parentheses) came out at 60%. For `CCCN(CCC)CCn1c(=S)[nH]c2ccccc2c1=O` [TG6-56], the “NOX2 IC50 (concentration giving half-maximal inhibition)” value is on record as “Not active”. For `CCN(CC)CCn1c(=S)[nH]c2ccc(Cl)cc2c1=O` [TG6-57], the IC50 is 6 µM. For the same molecule, for the setting “value in parentheses”, the Emax stood at 80%.

With `CN(C)CCCn1c(SCC(=O)Nc2nc(-c3cccc(Br)c3)cs2)nc2ccc(Cl)cc2c1=O` [TG6-58], the IC50 came out at 5 µM. For the same molecule, the Emax (value in parentheses) is 90%.

For the molecule `CSc1nc2ccc(Cl)cc2c(=O)n1CCC[N+](C)(C)C` [TG6-59], the IC50 came out at 3 µM. For the same molecule, the Emax (value in parentheses) stood at 75%.

Turning to `CN(C)CCCn1c(=S)[nH]c2cc(Cl)ccc2c1=O` [TG6-62], the IC50 came to 5 µM. Further, the Emax (value in parentheses) came to 90%. As to `COc1cc2[nH]c(=S)n(CCCN(C)C)c(=O)c2cc1OC` [TG6-63], the IC50 was determined as 2 µM. In addition, the Emax (value in parentheses) stood at 60%. `CN(C)CCCn1c(=S)[nH]c2cc(F)c(F)cc2c1=O` [TG6-64]: the IC50 is 1 µM. The Emax (value in parentheses) came to 60%. For the molecule `CN(C)CCCn1c(=S)[nH]c2c(Cl)cc(Cl)cc2c1=O` [TG6-65], the “NOX2 IC50 (concentration giving half-maximal inhibition)” value is “Not active”. Regarding `O=c1c2cc(Cl)ccc2[nH]c(=S)n1CCN1CCCCC1` [TG6-66], the IC50 worked out at 1.5 µM. Moreover, for the setting “value in parentheses”, the Emax amounted to 50%.
